Experimental data reported in patent publication US6503938B1, “2-phenylindoles as antiestrogenic pharmaceutical agents” (Schering Aktiengesellschaft, priority 1994, dated 2003).
One block for each compound: values may come before it.

Assays:
[1] = molecular target: T1, estrogen receptor consisting of calf uterus cytosol (Bos taurus, UniProt P49884); assay: Relative binding affinity (RBA) for the estrogen receptor, displacement of 3H-17β-estradiol; conditions: RBA(17β-estradiol) = 100
T1 construct: for the estrogen receptor consisting of calf uteri; from tissue; host or cells: calf uterus
T1 sequence (P49884 1-596): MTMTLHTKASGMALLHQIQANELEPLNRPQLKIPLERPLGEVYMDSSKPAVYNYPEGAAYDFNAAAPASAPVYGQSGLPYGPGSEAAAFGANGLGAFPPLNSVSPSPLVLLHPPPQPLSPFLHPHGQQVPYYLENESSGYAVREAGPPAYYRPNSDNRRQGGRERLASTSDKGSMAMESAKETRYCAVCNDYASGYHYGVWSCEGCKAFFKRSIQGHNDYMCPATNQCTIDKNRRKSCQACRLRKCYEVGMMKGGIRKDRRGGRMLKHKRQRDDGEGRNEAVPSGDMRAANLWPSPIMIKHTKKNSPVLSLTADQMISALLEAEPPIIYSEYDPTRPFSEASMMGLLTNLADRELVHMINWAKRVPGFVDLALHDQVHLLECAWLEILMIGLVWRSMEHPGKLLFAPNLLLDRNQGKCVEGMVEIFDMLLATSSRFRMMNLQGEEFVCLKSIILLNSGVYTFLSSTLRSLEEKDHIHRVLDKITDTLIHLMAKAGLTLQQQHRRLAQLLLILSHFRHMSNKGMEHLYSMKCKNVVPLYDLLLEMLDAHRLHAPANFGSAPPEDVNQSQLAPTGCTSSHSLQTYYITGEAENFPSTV

[2] = system: hormone-sensitive human MCF-7 breast cancer cells; assay: Cytostatic activity on hormone-sensitive human MCF-7 breast cancer cells (T/C of optical densities); format: cell-based; conditions: mean of 16 determinations ± SD
[3] = system: uterus of infantile mice; assay: Uterus weight test in infantile mice (estrogenic and antiestrogenic action); format: in vivo; conditions: for estrogenic action on the uterus of infantile mice: s.c. in olive oil on three successive days, uterus dry weight/body weight 24 hours after the last injection
Description: Compound no. […] For compounds nos. […] The dose/animal was administered s.c., dissolved in olive oil, on three successive days. The dry weight of the uterus [mg]/body weight [g]×100 was determined 24 hours after the last injection. This test is described in detail in Cancer Treatment Reviews, 1984, 11, 147 and J. Med. Chem., 1984, 27, 1439.

[4] = substance concentration 1 · 10^−6 M in the incubation medium
[5] = substance concentration 1 · 10^−7 M in the incubation medium
[6] = substance concentration 1 · 10^−8 M in the incubation medium
[7] = substance concentration 1 · 10^−9 M in the incubation medium

Compound: CCCCC[S+]([O-])CCCCCCCCCCn1c(-c2ccc(O)cc2)c(C)c2cc(O)ccc21 (stereo not shown) [Compound 2, 5-Hydroxy-2-(4-hydroxyphenyl)-3-methyl-1-[10-(pentylsulfinyl)-decyl]-indole]
RBA(*) relative binding affinity for the estrogen receptor [1]: 3.4

Compound: CCCCCS(=O)(=O)CCCCCCCCCCn1c(-c2ccc(O)cc2)c(C)c2cc(O)ccc21 [Compound 3, 5-Hydroxy-2-(4-hydroxyphenyl)-3-methyl-1-[10-(pentylsulfonyl)-decyl]-indole]
action of estrogen (0.4 μg/animal) on the uterus (antiestrogenic effect) ([3]; 10 mg/kg s.c., three successive days, with estrogen 0.4 μg/animal): completely cancelled out
dry weight of the uterus compared to control level ([3]; dose of 35 mg/kg s.c., three successive days): still lies below the control level
estrogenic action on the uterus of infantile mice [3]: does not show any estrogenic action

Compound: CCCS(=O)(=O)CCCCCCCCCCCCn1c(-c2ccc(O)cc2)c(C)c2cc(O)ccc21 [Compound 4, 5-hydroxy-2-(4-hydroxyphenyl)-3-methyl-1-[12-(propylsulfonyl)-dodecyl]-indole]
RBA(*) relative binding affinity for the estrogen receptor [1]: 1.9

Compound: CCCCN(C)S(=O)(=O)CCCCCCCCCCn1c(-c2ccc(O)cc2)c(C)c2cc(O)ccc21 [Compound 10, 1-[10-(n-butyl-methylsulfamoyl)-decyl]-5-hydroxy-(4-hydroxyphenyl)-3-methylindole]
RBA(*) relative binding affinity for the estrogen receptor [1]: 2.6
T/C [%] [2, 4]: −12.3 ± 6.3%
T/C [%] [2, 5]: −13.4 ± 4.5%
T/C [%] [2, 6]: 0.5 ± 6.3%
T/C [%] [2, 7]: 86.3 ± 18.0%

Compound: CCCCN(C)C(=O)CCCSCCCCCCn1c(-c2ccc(O)cc2)c(C)c2cc(O)ccc21 [Compound 13, 1-{6-[3′-(n-butyl-methylcarbamoyl)-propylthio]-hexyl}-5-hydroxy-2-(4-hydroxyphenyl)-3-methylindole]
RBA(*) relative binding affinity for the estrogen receptor [1]: 1.3
T/C [%] [2, 4]: 15.8 ± 6.9%
T/C [%] [2, 5]: 40.2 ± 11.4%
T/C [%] [2, 6]: 92.9 ± 15.2%
T/C [%] [2, 7]: 85.6 ± 16.0%

Compound: Cc1c(-c2ccc(O)cc2)n(CCCCCCCCCCSCC(=O)N(C)C(C)C)c2ccc(O)cc12 [Compound 14, 5-hydroxy-2-(4-hydroxyphenyl)-3-methyl-1-[10-[(methyl-iso-propylcarbamoyl)-methylthio]-decyl]-indole]
RBA(*) relative binding affinity for the estrogen receptor [1]: 1.7

Compound: CCCCCS(=O)(=O)CCCCOc1ccc(Cn2c(-c3ccc(O)cc3)c(C)c3cc(O)ccc32)cc1 [Compound 15, 5-hydroxy-2-(4-hydroxyphenyl)-3-methyl-1-[4-[4-(pentylsulfonyl)butoxy]-benzyl]-indole]
RBA(*) relative binding affinity for the estrogen receptor [1]: 9.5

Compound: CCCCCSCCCCCCCCCCn1c2c(c3cc(O)ccc31)CCc1cc(O)ccc1-2 [Compound 16, 6,11-dihydro-3,8-dihydroxy-5H-1-[10-(pentylthio)-decyl]benzo[a]carbazole]
RBA(*) relative binding affinity for the estrogen receptor [1]: 0.13
T/C [%] ([2]; substance concentration 1 · 10^−5 M in the incubation medium): −38.6 ±13.9%
T/C [%] [2, 4]: −7.8 ± 8.9%
T/C [%] [2, 5]: −18.5 ± 15.4%
T/C [%] ([2]; substance concentration 6 · 10^−6 M in the incubation medium): −31.1 ± 10.0%

More lines, main results first:

RBA(*) relative binding affinity for the estrogen receptor [1]: 2.0
Compound: 5-hydroxy-2-(4-hydroxyphenyl)-3-methyl-1-[12-[2-(N-methyl-imidazolyl)thio]-decyl]-indole [Compound 7]
T/C [%] [2, 4]: 36.8 ± 8.7%
T/C [%] [2, 5]: 60.4 ± 9.1%
T/C [%] [2, 6]: 83.8 ± 11.3%

RBA(*) relative binding affinity for the estrogen receptor [1]: 0.3
Compound: CCCCCSCCCCCCCCCCn1c(-c2ccc(O)cc2)c(C)c2cc(O)ccc21 [Compound 1, 5-Hydroxy-2-(4-hydroxyphenyl)-3-methyl-1-[10-(pentylthio)-decyl]-indole]

RBA(*) relative binding affinity for the estrogen receptor [1]: 2.9
Compound: CCC[S+]([O-])CCCCCCCCCCCCn1c(-c2ccc(O)cc2)c(C)c2cc(O)ccc21 (stereo not shown) [Compound 5, 5-hydroxy-2-(4-hydroxyphenyl)-3-methyl-1-[12-(propylsulfinyl)-dodecyl]-indole]

melting point: 56 to 60 °C
RBA(*) relative binding affinity for the estrogen receptor [1]: 1.4
Compound: Cc1c(-c2ccc(O)cc2)n(CCCCCCCCSc2ccccn2)c2ccc(O)cc12 [Compound 6, 5-hydroxy-2-(4-hydroxyphenyl)-3-methyl-1-[8-(2-pyridinylthio)-octyl]-indole]

RBA(*) relative binding affinity for the estrogen receptor [1]: 1.8
Compound: CCCS(=O)(=O)N(C)CCCCCCCCCCCn1c(-c2ccc(O)cc2)c(C)c2cc(O)ccc21 [Compound 8, 5-hydroxy-2-(4-hydroxyphenyl)-3-methyl-1-[11-(N-methyl-propylsulfonamido)-undecyl]-indole]

RBA(*) relative binding affinity for the estrogen receptor [1]: 1.0
Compound: Cc1c(-c2ccc(O)cc2)n(CCCCCCCCCCCN(C)S(=O)(=O)Cc2ccccc2)c2ccc(O)cc12 [Compound 9, 5-hydroxy-2-(4-hydroxyphenyl)-3-methyl-1-[11-(N-methyl-phenylmethanesulfonamido)-undecyl]-indole]

RBA(*) relative binding affinity for the estrogen receptor [1]: 2.4
Compound: Cc1c(-c2ccc(O)cc2)n(CCCCCCCCC[S+]([O-])CCCC(F)(F)C(F)(F)F)c2ccc(O)cc12 (stereo not shown) [Compound 11, 5-hydroxy-2-(4-hydroxyphenyl)-3-methyl-1-[9-(4,4,5,5,5-pentafluoropentylsulfinyl)-nonyl]-indole]
estrogenic action on the uterus of infantile mice [3]: virtually identical results

RBA(*) relative binding affinity for the estrogen receptor [1]: 1.0
Compound: Cc1c(-c2ccc(O)cc2)n(CCCCCCCCCS(=O)(=O)CCCC(F)(F)C(F)(F)F)c2ccc(O)cc12 [Compound 12, 5-hydroxy-2-(4-hydroxyphenyl)-3-methyl-1-[9-(4,4,5,5,5-pentafluoropentylsulfonyl)-nonyl]-indole]

melting point: 75 to 77 °C
Compound: COc1ccc(-c2c(C)c3cc(OC)ccc3n2CCCCCCCCSc2ccccn2)cc1 [Example 6, 5-Methoxy-2-(4-methoxyphenyl)-3-methyl-1-[8-(2-pyridinylthio)-octyl]-indole]

melting point: 88 °C
Compound: CNC(=O)CCCCCCCCCCn1c(-c2ccc(OC)cc2)c(C)c2cc(OC)ccc21 [Example 7, 5-Methoxy-2-(4-methoxyphenyl)-3-methyl-1-[10-(N-methylcarbamoyl)-decyl]-indole]
